Results: PMC9841523 (Journal of Medicinal Chemistry, 2022)

Legend:
Assay in all cases: KiNativ kinase panel
[1] = system: CDK11, CDK8; type: cell-based, human; conditions: 1 μM, MCF-7 Cells, Lys2
[2] = biological target: T1, CHK1 (Homo sapiens, UniProt O14757); type: cell-based; conditions: 1 μM, MCF-7 Cells
T1 construct: host or cells: MCF7
T1 sequence (O14757 1-476): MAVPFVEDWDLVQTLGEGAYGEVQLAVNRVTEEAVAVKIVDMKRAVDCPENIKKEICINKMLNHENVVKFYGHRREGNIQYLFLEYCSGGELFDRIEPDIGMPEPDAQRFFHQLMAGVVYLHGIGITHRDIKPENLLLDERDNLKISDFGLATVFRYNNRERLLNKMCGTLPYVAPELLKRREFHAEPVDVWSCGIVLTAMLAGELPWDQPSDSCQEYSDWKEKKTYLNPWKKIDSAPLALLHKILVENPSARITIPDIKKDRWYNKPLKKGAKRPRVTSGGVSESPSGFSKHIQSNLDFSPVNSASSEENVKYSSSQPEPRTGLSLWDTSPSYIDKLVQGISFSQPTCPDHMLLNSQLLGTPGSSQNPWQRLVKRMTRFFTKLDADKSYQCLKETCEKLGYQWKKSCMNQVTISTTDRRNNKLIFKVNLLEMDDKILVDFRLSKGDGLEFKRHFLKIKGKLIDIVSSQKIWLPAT

[3] = biological target: T2, CSK (Homo sapiens, UniProt P41240); type: cell-based; conditions: 1 μM, MCF-7 Cells
T2 construct: MCF7 cells were exposed to; endogenous in cells; host or cells: MCF7

[4] = biological target: T3, DLK (Homo sapiens, UniProt Q12852); type: cell-based; conditions: 1 μM; MCF-7 Cells; Lys2; DLKSPNMLITYDDVVK
T3 construct: endogenous in cells; host or cells: MCF7

[5] = system: FYN, SRC, YES; type: cell-based, human; conditions: 1 μM, MCF-7 Cells, Activation Loop
[6] = system: JNK1, JNK2, JNK3; type: cell-based, human; conditions: 1 μM, MCF-7 Cells, Lys2
[7] = biological target: T4, LATS2 (Homo sapiens, UniProt Q9NRM7); type: cell-based; conditions: 1 μM, MCF-7 Cells
T4 construct: endogenous in cells; host or cells: MCF7
T4 sequence (Q9NRM7 1-1088): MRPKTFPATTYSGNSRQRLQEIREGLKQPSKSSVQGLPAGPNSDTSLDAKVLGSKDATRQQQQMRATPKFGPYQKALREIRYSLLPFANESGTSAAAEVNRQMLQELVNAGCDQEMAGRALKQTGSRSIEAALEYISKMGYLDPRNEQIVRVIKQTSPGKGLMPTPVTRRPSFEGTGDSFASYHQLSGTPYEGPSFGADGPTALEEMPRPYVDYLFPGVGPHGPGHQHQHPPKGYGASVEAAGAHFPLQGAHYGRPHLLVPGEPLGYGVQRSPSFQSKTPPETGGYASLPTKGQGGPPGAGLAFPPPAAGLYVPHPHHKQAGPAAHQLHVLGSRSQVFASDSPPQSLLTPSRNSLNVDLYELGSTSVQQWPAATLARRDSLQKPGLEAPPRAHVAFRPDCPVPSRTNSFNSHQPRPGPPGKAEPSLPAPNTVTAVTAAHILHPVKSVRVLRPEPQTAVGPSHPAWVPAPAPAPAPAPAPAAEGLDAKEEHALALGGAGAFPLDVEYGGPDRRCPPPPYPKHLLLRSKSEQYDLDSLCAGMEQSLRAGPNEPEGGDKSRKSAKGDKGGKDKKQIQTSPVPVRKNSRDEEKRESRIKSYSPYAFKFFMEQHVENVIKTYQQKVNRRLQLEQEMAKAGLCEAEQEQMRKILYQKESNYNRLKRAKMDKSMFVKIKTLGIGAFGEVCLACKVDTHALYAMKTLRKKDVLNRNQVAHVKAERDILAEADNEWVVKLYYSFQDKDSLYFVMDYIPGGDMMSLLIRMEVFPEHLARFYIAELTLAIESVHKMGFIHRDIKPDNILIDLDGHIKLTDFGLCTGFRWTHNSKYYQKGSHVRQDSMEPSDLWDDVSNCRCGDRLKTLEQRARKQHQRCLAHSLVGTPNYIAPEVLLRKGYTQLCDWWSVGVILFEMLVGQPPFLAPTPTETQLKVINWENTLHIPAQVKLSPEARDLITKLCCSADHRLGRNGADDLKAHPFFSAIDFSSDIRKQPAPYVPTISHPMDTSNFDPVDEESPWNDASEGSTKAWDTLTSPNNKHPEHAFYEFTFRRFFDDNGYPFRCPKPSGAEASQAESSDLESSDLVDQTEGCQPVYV

[8] = system: MAP2K1, MAP2K2; type: cell-based, human; conditions: 1 μM, MCF-7 Cells
[9] = system: MSK1 domain1, MSK2 domain1; type: cell-based, human; conditions: 1 μM, MCF-7 Cells, ATP Loop
[10] = biological target: T5, NuaK2 (Homo sapiens, UniProt Q9H093); type: cell-based; conditions: 1 μM; MCF-7 Cells; Lys1; LVAIKSIR
T5 construct: purchased ActivX Biosciences (KiNativ)

[11] = system: PCTAIRE1, PCTAIRE3; type: cell-based, human; conditions: 1 μM, MCF-7 Cells, Lys2
[12] = system: PI4KA, PI4KAP2; type: cell-based, human; conditions: 1 μM, MCF-7 Cells, ATP
[13] = biological target: T6, PKR (Homo sapiens, UniProt P19525); type: cell-based; conditions: 1 μM, MCF-7 Cells
T6 construct: MCF7 cells were exposed to; endogenous in cells; host or cells: MCF7

[14] = biological target: T7, SYK (Homo sapiens, UniProt P43405); type: cell-based; conditions: 1 μM, MCF-7 Cells
T7 construct: MCF7 cells were exposed to; endogenous in cells; host or cells: MCF7

[15] = Activation Loop, VSDFGLTKEASSTQDTGKLPVK
[16] = Activation Loop, IGDFGLVTSLKNDGKR

T2 sequence (P41240 whole entry): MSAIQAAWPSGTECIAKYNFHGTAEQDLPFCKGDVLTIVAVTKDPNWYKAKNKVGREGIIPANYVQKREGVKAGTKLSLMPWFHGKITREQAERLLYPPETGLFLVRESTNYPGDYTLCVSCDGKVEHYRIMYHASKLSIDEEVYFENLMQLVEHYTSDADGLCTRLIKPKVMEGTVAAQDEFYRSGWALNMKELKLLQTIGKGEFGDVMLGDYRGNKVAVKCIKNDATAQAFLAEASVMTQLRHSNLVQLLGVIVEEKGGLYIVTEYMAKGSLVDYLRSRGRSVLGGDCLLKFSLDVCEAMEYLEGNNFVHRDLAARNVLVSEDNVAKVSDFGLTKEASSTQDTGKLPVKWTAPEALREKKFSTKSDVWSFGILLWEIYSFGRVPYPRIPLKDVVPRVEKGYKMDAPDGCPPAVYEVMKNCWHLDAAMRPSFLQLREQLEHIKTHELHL
T6 sequence (P19525 whole entry): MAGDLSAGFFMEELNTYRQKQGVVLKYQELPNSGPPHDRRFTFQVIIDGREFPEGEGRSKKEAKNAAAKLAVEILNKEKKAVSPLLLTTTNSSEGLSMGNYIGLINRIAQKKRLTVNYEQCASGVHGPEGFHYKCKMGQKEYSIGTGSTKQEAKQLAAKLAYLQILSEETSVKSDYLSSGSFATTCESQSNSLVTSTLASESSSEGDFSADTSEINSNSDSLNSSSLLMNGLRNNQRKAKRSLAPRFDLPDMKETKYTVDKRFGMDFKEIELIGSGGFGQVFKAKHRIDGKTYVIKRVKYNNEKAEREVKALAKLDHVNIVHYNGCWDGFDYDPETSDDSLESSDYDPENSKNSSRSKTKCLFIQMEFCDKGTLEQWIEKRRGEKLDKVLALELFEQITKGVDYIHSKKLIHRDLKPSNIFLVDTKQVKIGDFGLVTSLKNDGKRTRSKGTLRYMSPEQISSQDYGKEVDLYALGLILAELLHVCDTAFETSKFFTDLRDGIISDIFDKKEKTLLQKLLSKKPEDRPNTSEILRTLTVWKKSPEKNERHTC
T5 sequence (Q9H093 whole entry): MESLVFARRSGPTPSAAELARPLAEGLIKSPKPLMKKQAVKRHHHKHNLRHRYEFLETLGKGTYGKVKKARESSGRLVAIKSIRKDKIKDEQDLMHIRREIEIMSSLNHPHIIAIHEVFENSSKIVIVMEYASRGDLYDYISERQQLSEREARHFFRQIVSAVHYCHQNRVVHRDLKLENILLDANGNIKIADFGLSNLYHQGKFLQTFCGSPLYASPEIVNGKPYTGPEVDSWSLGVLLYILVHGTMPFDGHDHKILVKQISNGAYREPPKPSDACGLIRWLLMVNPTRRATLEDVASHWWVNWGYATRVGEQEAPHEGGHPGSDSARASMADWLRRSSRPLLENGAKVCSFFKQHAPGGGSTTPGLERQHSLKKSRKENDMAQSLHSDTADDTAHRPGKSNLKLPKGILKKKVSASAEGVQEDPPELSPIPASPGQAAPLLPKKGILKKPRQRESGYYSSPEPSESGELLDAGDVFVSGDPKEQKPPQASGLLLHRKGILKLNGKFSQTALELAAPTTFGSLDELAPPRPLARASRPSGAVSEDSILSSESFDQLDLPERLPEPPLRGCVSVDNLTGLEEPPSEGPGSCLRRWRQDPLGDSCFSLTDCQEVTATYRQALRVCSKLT
T3 sequence (Q12852 whole entry): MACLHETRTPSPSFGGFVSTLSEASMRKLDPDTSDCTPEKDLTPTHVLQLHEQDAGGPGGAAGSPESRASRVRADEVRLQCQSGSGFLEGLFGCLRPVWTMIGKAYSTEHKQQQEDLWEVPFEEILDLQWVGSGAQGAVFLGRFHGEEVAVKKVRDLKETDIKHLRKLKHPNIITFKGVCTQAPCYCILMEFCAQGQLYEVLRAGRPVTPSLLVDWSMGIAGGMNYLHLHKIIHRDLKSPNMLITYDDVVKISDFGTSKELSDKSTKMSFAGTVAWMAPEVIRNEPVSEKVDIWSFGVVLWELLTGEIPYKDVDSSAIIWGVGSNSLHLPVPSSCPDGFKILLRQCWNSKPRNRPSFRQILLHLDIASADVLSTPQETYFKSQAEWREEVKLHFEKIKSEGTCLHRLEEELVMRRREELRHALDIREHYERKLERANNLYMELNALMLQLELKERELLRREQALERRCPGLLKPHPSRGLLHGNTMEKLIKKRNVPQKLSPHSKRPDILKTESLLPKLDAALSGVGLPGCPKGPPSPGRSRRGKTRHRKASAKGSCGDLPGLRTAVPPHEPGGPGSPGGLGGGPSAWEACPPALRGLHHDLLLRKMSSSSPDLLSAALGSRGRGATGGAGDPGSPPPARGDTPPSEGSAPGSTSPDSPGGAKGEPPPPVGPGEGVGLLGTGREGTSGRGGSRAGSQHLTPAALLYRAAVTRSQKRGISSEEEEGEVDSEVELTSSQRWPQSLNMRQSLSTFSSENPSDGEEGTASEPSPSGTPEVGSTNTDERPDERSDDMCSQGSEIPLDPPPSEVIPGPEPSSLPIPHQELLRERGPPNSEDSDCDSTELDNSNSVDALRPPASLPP

Compound | KiNativ Kinase Panel Data [3, 15] | KiNativ Kinase Panel Data ([3]; Lys1, VAVKCIK) | KiNativ Kinase Panel Data [4] | KiNativ Kinase Panel Data ([7]; Lys2, DIKPDNILIDLDGHIK) | KiNativ Kinase Panel Data ([8]; Lys1, KLIHLEIKPAIR) | KiNativ Kinase Panel Data [10] | KiNativ Kinase Panel Data [13, 16] | KiNativ Kinase Panel Data ([13]; Lys1, TYVIKR) | KiNativ Kinase Panel Data ([13]; Lys2, DLKPSNIFLVDTK) | KiNativ Kinase Panel Data ([14]; Activation Loop, ISDFGLSKALR) | KiNativ Kinase Panel Data ([14]; Lys1, TVAVKILK) | further results
CO[C@H]1C[C@@H]2CC[C@@H](C)[C@@](O)(O2)C(=O)C(=O)N2CCCC[C@H]2C(=O)O[C@H]([C@H](C)C[C@@H]2CC[C@@H](OC(=O)NCCOCCOCCOCCOCCOCCOCCOCCOCCC(=O)N3CCc4cc(Cn5nc(-c6ccc7oc(N)nc7c6)c6c(N)ncnc65)ccc4C3)[C@H](OC)C2)C[C@@H](O)[C@H](C)/C=C(\C)[C@@H](O)[C@@H](OC)C(=O)[C@H](C)C[C@H](C)/C=C/C=C/C=C/1C [compound 38] | 1.9 | 13.6 | -43.9 | 22.9 | 14.8 | 18.8 | 12.1 | 15.2 | 11.0 | 18.4 | 14.0 | KiNativ Kinase Panel Data ([1]; […]): -39.0; KiNativ Kinase Panel Data ([2]; Lys2, […]): -13.6; KiNativ Kinase Panel Data ([2]; Other, […]): 25.4; KiNativ Kinase Panel Data ([5]; […]): -6.3; KiNativ Kinase Panel Data ([6]; […]): 13.8; KiNativ Kinase Panel Data ([7]; Lys1, […]): -20.5; KiNativ Kinase Panel Data ([8]; Lys2, […]): 7.6; KiNativ Kinase Panel Data ([9]; […]): 33.6; KiNativ Kinase Panel Data ([11]; […]): 13.9; KiNativ Kinase Panel Data ([12]; […]): -38.9; KiNativ Kinase Panel Data ([14]; Activation Loop, […]): 6.4
CO[C@H]1C[C@@H]2CC[C@@H](C)[C@@](O)(O2)C(=O)C(=O)N2CCCC[C@H]2C(=O)O[C@H]([C@H](C)C[C@@H]2CC[C@@H](OC(=O)NCCOCCOCCOCCOCCOCCOCCOCCOCCC(=O)NCCS(=O)(=O)c3ccc(C(=O)N4CCOc5ccc(-c6ccc(N)nc6)cc5C4)c(C)c3F)[C@H](OC)C2)C[C@@H](O)[C@H](C)/C=C(\C)[C@@H](O)[C@@H](OC)C(=O)[C@H](C)C[C@H](C)/C=C/C=C/C=C/1C [compound 40] | 5.5 | 17.7 | -20.3 | -1.4 | -34.9 | 16.0 | 17.4 | 9.6 | -32.5 | -14.3 | -3.7 | KiNativ Kinase Panel Data ([1]; DLKPANILVMGEGPER): -19.1; KiNativ Kinase Panel Data ([2]; Lys2, DIKPENLLLDER): -10.9; KiNativ Kinase Panel Data ([2]; Other, LSKGDGLEFK): 19.6; KiNativ Kinase Panel Data ([5]; QGAKFPIKWTAPEAALYGR): -28.5; KiNativ Kinase Panel Data ([6]; DLKPSNIVVK): -9.5; KiNativ Kinase Panel Data ([7]; Lys1, VDTHALYAMKTLR): -0.8; KiNativ Kinase Panel Data ([8]; Lys2, DVKPSNILVNSR): -22.1; KiNativ Kinase Panel Data ([9]; VLGTGAYGKVFLVR): 16.0; KiNativ Kinase Panel Data ([11]; DLKPQNLLINER): -31.2; KiNativ Kinase Panel Data ([12]; SGTPMQSAAKAPYLAK): -5.7; KiNativ Kinase Panel Data ([14]; Activation Loop, AQTHGKWPVK): 13.3
